Legend:
Type in all cases: cell-based
Ramos, NHL = assay: In vitro assays - TubOEt analogues, CellTiter-Glo growth inhibition; details: Homo sapiens, Table 3, lantern-made analogues >85% purity, 96 hour exposure
Experimental: (§1) In vitro assays. Cells cultured in log-phase growth were seeded for 24 h in 96-well plates containing 150 μL RPMI 1640 supplemented with 20% FBS. Serial dilutions of antibody-drug conjugates in cell culture media were prepared at 4× working concentrations; 50 μL of each dilution was added to the 96-well plates. Following addition of ADC, cells were incubated with test articles for 4 d at 37° C. After 96 h, growth inhibition was assessed by CellTiter-Glo® (Promega, Madison, WI) and luminescence was measured on a plate reader. The IC50 value, determined in triplicate, is defined here as the concentration that results in a 50% reduction in cell growth relative to untreated controls.
(§2) A series of analogues of the ethyl ether tubulysin compound TubOEt (41) were synthesized on solid phase lanterns that maintain the ethyl ether substitution, while either varying the residue at the Ile position (203-215) or the Mep position (216-221). Following cleavage from the solid phase, the analogues were obtained in >85% purity and tested without further purification. The compounds were tested in vitro for potency relative to a sample of TubOEt synthesized in parallel on a lantern (41-lantern), following a 96 hour exposure, with IC5O values expressed in nM (Table 3). While in many cases an attenuation in activity was observed relative to 41-lantern, some well-tolerated substitutions were found. […] While this stereochemical preference is not observed when Ile is replaced with O-methyl threonine (207) or O-methyl allothreonine (206), bulkier substituents led to a greater differentiation. […] Replacement of the Mep residue was generally less-well tolerated.

HepG2, HCC = assay: as above; details: Homo sapiens, Table 3, lantern-made analogues >85% purity, 96 hour exposure
Experimental: as §1, §2

U266 MM = assay: as above; details: Homo sapiens, U-266; Table 3; lantern-made analogues >85% purity, 96 hour exposure
Experimental: as §1, §2

L540cy, HL = assay: In vitro assays - tubulysin free drugs, CellTiter-Glo growth inhibition; details: L540cy, 96 h, 96 hour exposure
Experimental: as §1
(§3) In vitro assays—tubulysin free drugs. Cells were treated for 96 hours with tubulysin ether analogs (40-42) or tubulysin M (7), then assessed for viability as described in the methods.
(§4) The tubulysin ester analogs (133-137) and unsaturated ether analogs (176-179) were tested in vitro for potency relative to tubulysin M (7), following a 96 hour exposure. As shown by IC50 values (nM) of Table 2, Tubulysin esters 133-136 performed comparably to tubulysin M, with similar potencies across of the cell lines.
as §2

HL60/RV, MDR + AML = assay: as above; details: Homo sapiens, HL-60, 96 h, 96 hour exposure
Experimental: as §1, §3, §4, §2

HL60, AML = assay: as above; details: Homo sapiens, HL-60, 96 h, 96 hour exposure
Experimental: as §1, §3, §4, §2

L428, MDR + HL = assay: as above; details: Homo sapiens, L-428, 96 h, Table 2; free drug, 96 hour exposure
Experimental: as §1, §3, §4

Karpas299, ALCL = assay: as above; details: Homo sapiens, KARPAS-299, 96 h, Table 2; free drug, 96 hour exposure
Experimental: as §1, §3, §4

[1] = Table 3, lantern-made analogues >85% purity

Compound: CCO[C@H](C[C@H](C(C)C)N(C)C(=O)[C@H](CC1CC1)NC(=O)[C@H]1CCCCN1C)c1nc(C(=O)N[C@@H](Cc2ccccc2)C[C@H](C)C(=O)O)cs1 [Compound 212, (2S,4R)-4-(2-((1R,3R)-3-((S)-3-cyclopropyl-N-methyl-2-((R)-1-methylpiperidine-2-carboxamido)propanamido)-1-ethoxy-4-methylpentyl)thiazole-4-carboxamido)-2-methyl-5-phenylpentanoic acid]
- IC50 (Ramos, NHL): 1 nM
- IC50 (HepG2, HCC): 19 nM
- IC50 (U266 MM): 1 nM
- IC50 (L540cy, HL; [1]): 2 nM
- IC50 (HL60/RV, MDR + AML; [1]): 810 nM
- IC50 (HL60, AML; [1]): 8 nM

Compound: CC[C@H](C)[C@H](NC(=O)[C@H]1CCCCN1C)C(=O)N(C)[C@H](C[C@@H](OC(=O)CC(C)C)c1nc(C(=O)N[C@@H](Cc2ccccc2)C[C@H](C)C(=O)O)cs1)C(C)C [Compound 136, (2S,4R)-4-(2-((1R,3R)-3-((2S,3S)—N,3-dimethyl-2-((R)-1-methylpiperidine-2-carboxamido)pentanamido)-4-methyl-1-((3-methylbutanoyl)oxy)pentyl)thiazole-4-carboxamido)-2-methyl-5-phenylpentanoic acid]
- IC50 (L428, MDR + HL): 0.11 nM
- IC50 (Karpas299, ALCL): 0.02 nM
- IC50 (L540cy, HL; Table 2, free drug): 0.06 nM
- IC50 (HL60/RV, MDR + AML; Table 2, free drug): 6 nM
- IC50 (HL60, AML; Table 2, free drug): 0.04 nM

Compound: CCO[C@H](C[C@H](C(C)C)N(C)C(=O)C(NC(=O)[C@H]1CCCCN1C)C12CC(F)(C1)C2)c1nc(C(=O)N[C@@H](Cc2ccccc2)C[C@H](C)C(=O)O)cs1 (stereo partly drawn) [Compound 211, (2S,4R)-4-(2-((1R,3R)-1-ethoxy-3-(2-(3-fluorobicyclo[1.1.1]pentan-1-yl)-N-methyl-2-((R)-1-methylpiperidine-2-carboxamido)acetamido)-4-methylpentyl)thiazole-4-carboxamido)-2-methyl-5-phenylpentanoic acid]
- IC50 (Ramos, NHL): 1 nM
- IC50 (HepG2, HCC): 14 nM
- IC50 (U266 MM): 2 nM
- IC50 (L540cy, HL; [1]): 2 nM
- IC50 (HL60/RV, MDR + AML; [1]): 224 nM
- IC50 (HL60, AML; [1]): 5 nM

Compound: CCO[C@H](C[C@H](C(C)C)N(C)C(=O)[C@H](CC1CCCCC1)NC(=O)[C@H]1CCCCN1C)c1nc(C(=O)N[C@@H](Cc2ccccc2)C[C@H](C)C(=O)O)cs1 [Compound 213, (2S,4R)-4-(2-((1R,3R)-3-((S)-3-cyclohexyl-N-methyl-2-((R)-1-methylpiperidine-2-carboxamido)propanamido)-1-ethoxy-4-methylpentyl)thiazole-4-carboxamido)-2-methyl-5-phenylpentanoic acid]
- IC50 (Ramos, NHL): 10 nM
- IC50 (HepG2, HCC): 70 nM
- IC50 (U266 MM): 9 nM
- IC50 (L540cy, HL; [1]): 20 nM
- IC50 (HL60/RV, MDR + AML; [1]): > 1000 nM
- IC50 (HL60, AML; [1]): 42 nM

Compound: CCO[C@H](C[C@H](C(C)C)N(C)C(=O)[C@@H](NC(=O)[C@H]1CCCCN1C)[C@@H](C)OC)c1nc(C(=O)N[C@@H](Cc2ccccc2)C[C@H](C)C(=O)O)cs1 [Compound 207, (2S,4R)-4-(2-((1R,3R)-1-ethoxy-3-((2S,3R)-3-methoxy-N-methyl-2-((R)-1-methylpiperidine-2-carboxamido)butanamido)-4-methylpentyl)thiazole-4-carboxamido)-2-methyl-5-phenylpentanoic acid]
- IC50 (Ramos, NHL): 2 nM
- IC50 (HepG2, HCC): 46 nM
- IC50 (U266 MM): 2 nM
- IC50 (L540cy, HL; [1]): 6 nM
- IC50 (HL60/RV, MDR + AML; [1]): > 1000 nM
- IC50 (HL60, AML; [1]): 9 nM

Compound: CCO[C@H](C[C@H](C(C)C)N(C)C(=O)[C@@H](NC(=O)[C@H]1CCCCN1C)C1Cc2ccccc2C1)c1nc(C(=O)N[C@@H](Cc2ccccc2)C[C@H](C)C(=O)O)cs1 [Compound 208, (2S,4R)-4-(2-((1R,3R)-3-((S)-2-(2,3-dihydro-1H-inden-2-yl)-N-methyl-2-((R)-1-methylpiperidine-2-carboxamido)acetamido)-1-ethoxy-4-methylpentyl)thiazole-4-carboxamido)-2-methyl-5-phenylpentanoic acid]
- IC50 (Ramos, NHL): 44 nM
- IC50 (HepG2, HCC): 250 nM
- IC50 (U266 MM): 40 nM
- IC50 (L540cy, HL; [1]): 58 nM
- IC50 (HL60/RV, MDR + AML; [1]): > 1000 nM
- IC50 (HL60, AML; [1]): 221 nM

Compound: CCCC(=O)O[C@H](C[C@H](C(C)C)N(C)C(=O)[C@@H](NC(=O)[C@H]1CCCCN1C)[C@@H](C)CC)c1nc(C(=O)N[C@@H](Cc2ccccc2)C[C@H](C)C(=O)O)cs1 [Compound 134, (2S,4R)-4-(2-((1R,3R)-1-(butyryloxy)-3-((2S,3S)—N,3-dimethyl-2-((R)-1-methylpiperidine-2-carboxamido)pentanamido)-4-methylpentyl)thiazole-4-carboxamido)-2-methyl-5-phenylpentanoic acid]
- IC50 (L428, MDR + HL): 0.05 nM
- IC50 (Karpas299, ALCL): 0.011 nM
- IC50 (L540cy, HL; Table 2, free drug): 0.04 nM
- IC50 (HL60/RV, MDR + AML; Table 2, free drug): 3 nM
- IC50 (HL60, AML; Table 2, free drug): 0.08 nM

Compound: CCO[C@H](C[C@H](C(C)C)N(C)C(=O)[C@@H](NC(=O)[C@H]1CCCCN1C)[C@H](C)OC(C)(C)C)c1nc(C(=O)N[C@@H](Cc2ccccc2)C[C@H](C)C(=O)O)cs1 [Compound 214, (2S,4R)-4-(2-((1R,3R)-3-((2S,3S)-3-(tert-butoxy)-N-methyl-2-((R)-1-methylpiperidine-2-carboxamido)butanamido)-1-ethoxy-4-methylpentyl)thiazole-4-carboxamido)-2-methyl-5-phenylpentanoic acid]
- IC50 (Ramos, NHL): 20 nM
- IC50 (HepG2, HCC): 91 nM
- IC50 (U266 MM): 22 nM
- IC50 (L540cy, HL; [1]): 30 nM
- IC50 (HL60/RV, MDR + AML; [1]): > 1000 nM
- IC50 (HL60, AML; [1]): 190 nM

Compound: CCO[C@H](C[C@H](C(C)C)N(C)C(=O)[C@@H](NC(=O)[C@H]1CCCCN1C)C(CC)CC)c1nc(C(=O)N[C@@H](Cc2ccccc2)C[C@H](C)C(=O)O)cs1 [Compound 203, (2S,4R)-4-(2-((1R,3R)-1-ethoxy-3-((S)-3-ethyl-N-methyl-2-((R)-1-methylpiperidine-2-carboxamido)pentanamido)-4-methylpentyl)thiazole-4-carboxamido)-2-methyl-5-phenylpentanoic acid]
- IC50 (Ramos, NHL): 0.4 nM
- IC50 (HepG2, HCC): 8 nM
- IC50 (U266 MM): 0.5 nM
- IC50 (L540cy, HL; [1]): 1 nM
- IC50 (HL60/RV, MDR + AML; [1]): 604 nM
- IC50 (HL60, AML; [1]): 8 nM

Compound: CCO[C@H](C[C@H](C(C)C)N(C)C(=O)[C@@H](NC(=O)[C@H]1CCCCN1C)[C@H](C)OC)c1nc(C(=O)N[C@@H](Cc2ccccc2)C[C@H](C)C(=O)O)cs1 [Compound 206, (2S,4R)-4-(2-((1R,3R)-1-ethoxy-3-((2S,3S)-3-methoxy-N-methyl-2-((R)-1-methylpiperidine-2-carboxamido)butanamido)-4-methylpentyl)thiazole-4-carboxamido)-2-methyl-5-phenylpentanoic acid]
- IC50 (Ramos, NHL): 2 nM
- IC50 (HepG2, HCC): 41 nM
- IC50 (U266 MM): 3 nM
- IC50 (L540cy, HL; [1]): 6 nM
- IC50 (HL60/RV, MDR + AML; [1]): > 1000 nM
- IC50 (HL60, AML; [1]): 16 nM

Compound: CCO[C@H](C[C@H](C(C)C)N(C)C(=O)[C@@H](NC(=O)[C@@H](C(C)C)N(C)C)[C@@H](C)CC)c1nc(C(=O)N[C@@H](Cc2ccccc2)C[C@H](C)C(=O)O)cs1 [Compound 220, (2S,4R)-4-(2-((3R,6S,9R,11R)-6-((S)-sec-butyl)-3,9-diisopropyl-2,8-dimethyl-4,7-dioxo-12-oxa-2,5,8-triazatetradecan-11-yl)thiazole-4-carboxamido)-2-methyl-5-phenylpentanoic acid]
- IC50 (Ramos, NHL): 10 nM
- IC50 (HepG2, HCC): 41 nM
- IC50 (U266 MM): 10 nM
- IC50 (L540cy, HL; [1]): 13 nM
- IC50 (HL60/RV, MDR + AML; [1]): > 1000 nM
- IC50 (HL60, AML; [1]): 299 nM

Compound: CCO[C@H](C[C@H](C(C)C)N(C)C(=O)[C@@H](NC(=O)[C@H]1CCCCN1C)[C@H](C)CC)c1nc(C(=O)N[C@@H](Cc2ccccc2)C[C@H](C)C(=O)O)cs1 [Compound 209, (2S,4R)-4-(2-((1R,3R)-3-((2S,3R)—N,3-dimethyl-2-((R)-1-methylpiperidine-2-carboxamido)pentanamido)-1-ethoxy-4-methylpentyl)thiazole-4-carboxamido)-2-methyl-5-phenylpentanoic acid]
- IC50 (Ramos, NHL): 7 nM
- IC50 (HepG2, HCC): 50 nM
- IC50 (U266 MM): 8 nM
- IC50 (L540cy, HL; [1]): 12 nM
- IC50 (HL60/RV, MDR + AML; [1]): > 1000 nM
- IC50 (HL60, AML; [1]): 15 nM
